Experiment [1] relates to coronary artery (isolated heart). The experiment in a line: Coronary vascular dilative effect, isolated perfused guinea pig heart, Langendorff's method (perfusion pressure). The settings on record: for Pharmacological data ED50: 0.1 ml injected into coronary artery, isolated guinea pig heart, 37° C., 6 ml/minute. As to the method: The coronary vascular dilative effect of 3N-substituted 3,4-dihydropryrimidine derivatives was tested.
Heartly guinea pigs (weight 400-500 g) were clubbed dead and their hearts were immediately isolated. The hearts were perfused with Krebs-Henseleit solution bubbled with a mixture of 95% O2 +5% CO2 and maintained at 37° C. at a certain rate of 6 ml/minute according to Langendorff's method [J. Pharmacol. Methods 2, 143 (1979)]. The perfusion pressure was determined by a pressure transducer. Samples were prepared by dissolving 1 mg of a test compound in 1 ml of a mixture of dimethylsulfoxide and physiological saline (1:9) and diluting with physiological saline the solution to the predetermined concentration. 0.1 ml of the diluted solution was administered into the coronary artery via a rubber tube connected to an aorta cannula to obtain ED50 (μg/heart) data as shown in Table 1. The numbers of the compounds in the Table correspond respectively to those of the working examples described above.

Experiment [2] deals with systemic blood pressure. The experiment in a line: Systemic blood pressure (average pressure) in anesthetized dogs. In kind it is in vivo, dog. Conditions: Canis lupus familiaris, iv, read-out: Average blood pressure, percentage compared with control. As to the method:
(§1) The pharmacological effects of the compounds of the present invention with respect to the blood flow and blood vessel resistance of vertebral artery and systemic blood pressure (average pressure) in anesthetized dogs. […] The first and second ribs were cut open to expose the left vertebral artery. A probe was attached to the origin of the artery and the blood flow was measured with an electromagnetic rheometer (Model MF-27, product of Nihon Koden K.K.) At the same time, continuous measurement of the following parameters was made: systemic blood pressure (average pressure) at the right femoral artery, the ECG in the second induction period, the heart beat with a tachometer driven by the R wave, and the blood vessel resistance determined by loading a multiplication/division unit (EO-601 G, product of Nihon Koden K.K.) with the average values of blood pressure and blood flow in the vertebral artery. All of these parameters were recorded simultaneously on a polygraph (RM-600, product of Nihon Koden, K.K.) All of the test compounds were injected through a cannula inserted into the femoral […].

The test system of experiment [3] is vertebral artery. The experiment in a line: Blood flow and blood vessel resistance of vertebral artery in anesthetized dogs. The experiment is classed as in vivo, dog. The settings on record: Canis lupus familiaris, iv. The procedure: as §1
Where [4] appears, read: 0.001 mg/kg, % of value before administration, average ± standard error.
Setting [5] is: % of value before administration, average ± standard error.
Where [6] appears, read: 0.1 mg/kg, % of value before administration, average ± standard error.
The mark [7] stands for this setting: 0.001 mg/kg, % of value before administration, average ± standard error, read-out: Vertebral artery blood flow, percentage compared with control.
[8] abbreviates: 0.001 mg/kg, % of value before administration, average ± standard error, read-out: Vertebral artery vessel resistance, percentage compared with control.
The mark [9] stands for this setting: % of value before administration, average ± standard error, read-out: Vertebral artery blood flow, percentage compared with control.
Where [10] appears, read: % of value before administration, average ± standard error, read-out: Vertebral artery vessel resistance, percentage compared with control.
The mark [11] stands for this setting: 0.1 mg/kg, % of value before administration, average ± standard error, read-out: Vertebral artery blood flow, percentage compared with control.
Where [12] appears, read: 0.1 mg/kg, % of value before administration, average ± standard error, read-out: Vertebral artery vessel resistance, percentage compared with control.
[13] abbreviates: read-out: Vertebral artery blood flow, percentage compared with control.
Setting [14] is: read-out: Vertebral artery vessel resistance, percentage compared with control.

The text below walks through data of patent US4640922A, “3N-substituted 3,4-dihydropyrimidines as agents for treating disorders of cardiovascular system” (Suntory Limited, priority 1984, dated 1987).

Read-outs that look alike come from different tables or passages of the source.

In the case of `CCOC(=O)C1=C(Cl)N=C(C)N(C(=O)OC)C1c1ccc(SC)cc1` (centres unmarked) [Compound 20], the “Pharmacological data ED50” value in experiment [1] stood at 0.22 μg/heart.
Take `COC(=O)C1=C(C)N=C(C)N(C(=O)OC)C1c1cccc([N+](=O)[O-])c1` (centres unmarked) [Compound 17]: in experiment [1], the “Pharmacological data ED50” value is listed as 2.5 μg/heart. Besides, the response vs control in vivo at 0.001 mg/kg in experiment [2] (setting [4]) worked out at 95%; in experiment [3] (setting [7]), 100%; in experiment [3] (setting [8]), 97%. For the same compound, the response vs control in vivo at 0.003 mg/kg is 90% in experiment [2] (setting [5]), 106% in experiment [3] (setting [9]) and 95% in experiment [3] (setting [10]). Besides, the figures for the response vs control in vivo at 0.01 mg/kg in experiment [2] (setting [5]), in experiment [3] (setting [9]) and in experiment [3] (setting [10]) were 89%, 108% and 89%, respectively. Further, the response vs control in vivo at 0.03 mg/kg in experiment [2] (setting [5]) was 86%; in experiment [3] (setting [9]) it was 129%; in experiment [3] (setting [10]) it was 77%. The response vs control in vivo at 0.1 mg/kg in experiment [2] (setting [6]) amounted to 74%; in experiment [3] (setting [11]) it was 148%; in experiment [3] (setting [12]), 67%.
For the compound `CCOC(=O)C1=C(C)N=C(C)N(C(=O)OCC)C1c1cccc([N+](=O)[O-])c1` (centres unmarked) [Compound 12], the “Pharmacological data ED50” value in experiment [1] is 1.9 μg/heart. Besides, the figures for the response vs control in vivo at 0.003 mg/kg in experiment [2] (setting [5]), in experiment [3] (setting [9]) and in experiment [3] (setting [10]) were 93 ± 0.3%, 129 ± 11% and 86 ± 2%, respectively. Further, the response vs control in vivo at 0.01 mg/kg in experiment [2] (setting [5]) stood at 86 ± 1%; in experiment [3] (setting [9]), 148 ± 3%; in experiment [3] (setting [10]) it was 73 ± 3%. Besides, the values for the response vs control in vivo at 0.03 mg/kg in experiment [2] (setting [5]), in experiment [3] (setting [9]) and in experiment [3] (setting [10]) were 84 ± 3%, 163 ± 7% and 62 ± 4%, respectively. Besides, the response vs control in vivo at 0.1 mg/kg in experiment [2] (setting [6]) was determined as 77 ± 2%; in experiment [3] (setting [11]), 200 ± 6%; in experiment [3] (setting [12]), 47 ± 5%.
With `COC(=O)C1=C(C)NC(C)=C(C(=O)OC)C1c1ccccc1[N+](=O)[O-]` [Nifedipine, reference compound], the response vs control in vivo at 0.0001 mg/kg in experiment [2] came out at 94%; in experiment [3] (setting [13]), 114%; in experiment [3] (0.0001 mg/kg, % of value before administration, read-out: Vertebral artery vessel resistance, percentage compared with control), 79%. For the same compound, the response vs control in vivo at 0.0003 mg/kg stood at 94% in experiment [2]; 129% in experiment [3] (setting [13]); 67% in experiment [3] (0.0003 mg/kg, % of value before administration, average ± standard error, read-out: Vertebral artery vessel resistance, percentage compared with control). For the same compound, the response vs control in vivo at 0.001 mg/kg in experiment [2] was 87%; in experiment [3] (setting [13]), 154%; in experiment [3] (setting [8]), 57%.
Turning to `CCOC(=O)N1C(C)=NC(Cl)=C(C(=O)OC)C1c1ccccc1[N+](=O)[O-]` (centres unmarked) [Compound 9], in experiment [1], the “Pharmacological data ED50” value is recorded as 0.78 μg/heart.
On the same count and under the same terms, for `CCOC(=O)C1=C(C)N=C(C)N(C(=O)OC)C1c1ccc(SC)cc1` (centres unmarked) [Compound 21] the value was 1.0 μg/heart.
For `COC(=O)C1=C(C)NC(C)=C(C(=O)OCCN(C)Cc2ccccc2)C1c1cccc([N+](=O)[O-])c1` (centres unmarked) [Nicardipine, reference compound], the response vs control in vivo at 0.001 mg/kg in experiment [2] (setting [4]) was found to be 90 ± 1%; in experiment [3] (setting [7]) it was 123 ± 7%; in experiment [3] (setting [8]), 79 ± 4%. In addition, the response vs control in vivo at 0.003 mg/kg in experiment [2] (setting [5]) is 87 ± 2%; in experiment [3] (setting [9]) it was 147 ± 15%; in experiment [3] (setting [10]) it was 67 ± 7%. The response vs control in vivo at 0.01 mg/kg is 80 ± 2% in experiment [2] (setting [5]), 183 ± 13% in experiment [3] (setting [9]) and 49 ± 3% in experiment [3] (setting [10]).
Regarding `CCOC(=O)C1=C(C)N=C(C)N(C(=O)OCC)C1c1ccc(SC)cc1` (centres unmarked) [Compound 19], in experiment [1], the “Pharmacological data ED50” value is on record as 0.58 μg/heart.
`CCOC(=O)C1=C(C)N=C(C)N(C(=O)OC)C1c1ccccc1[N+](=O)[O-]` (centres unmarked) [Compound 5]: the “Pharmacological data ED50” value in experiment [1] came out at 0.066 μg/heart. For the same compound, in experiment [1] (Langendorff's method, guinea pig heart), the “coronary vascular dilative effects (in words)” value was “extremely strong coronary vascular dilative effects”.
In the case of `COC(=O)C1=C(Cl)N=C(C)N(C(=O)OC)C1c1ccccc1[N+](=O)[O-]` (centres unmarked) [Compound 11], the “Pharmacological data ED50” value in experiment [1] worked out at 1.65 μg/heart.
The same measure, in the same setting: next, `CCOC(=O)C1=C(Cl)N=C(C)N(C(=O)OC)C1c1cccc([N+](=O)[O-])c1` (centres unmarked) [Compound 2, 6-Chloro-5-ethoxycarbonyl-3-N-methoxycarbonyl-2-methyl-4-(3'-nitrophenyl)-3,4-dihydropyrimidine]: 0.98 μg/heart; `CCOC(=O)N1C(C)=NC(C)=C(C(=O)OC)C1c1ccccc1[N+](=O)[O-]` (centres unmarked) [Compound 7]: 0.40 μg/heart; `CCOC(=O)C1=C(C)N=C(C)N(C(=O)OC)C1c1cccc([N+](=O)[O-])c1` (centres unmarked) [Compound 3, 2,6-Dimethyl-5-ethoxycarbonyl-3-N-methoxycarbonyl-4-(3'-nitrophenyl)-3,4-dihydropyrimidine]: 1.45 μg/heart.
Same read-out and setting: for `CCOC(=O)N1C(C)=NC(C)=C(C(=O)OC)C1c1cccc([N+](=O)[O-])c1` (centres unmarked) [Compound 14] the value was 1.1 μg/heart.
The same measure, in the same setting: next, `CCOC(=O)N1C(C)=NC(Cl)=C(C(=O)OC)C1c1cccc([N+](=O)[O-])c1` (centres unmarked) [Compound 16]: 10.0 μg/heart; `COC(=O)C1=C(Cl)N=C(C)N(C(=O)OC)C1c1cccc([N+](=O)[O-])c1` (centres unmarked) [Compound 15]: 2.8 μg/heart.
Regarding `CCOC(=O)C1=C(Cl)N=C(C)N(C(=O)OCC)C1c1ccc(SC)cc1` (centres unmarked) [Compound 18], the “Pharmacological data ED50” value in experiment [1] came to 0.37 μg/heart.
Still for that read-out and setting: next, `CCOC(=O)C1=C(Cl)N=C(C)N(C(=O)OC)C1c1ccccc1[N+](=O)[O-]` (centres unmarked) [Compound 6]: 0.70 μg/heart.
For `COc1ccc(Cc2nccc3cc(OC)c(OC)cc23)cc1OC` [Papaverine, reference compound], the response vs control in vivo at 0.1 mg/kg in experiment [2] worked out at 93 ± 1%; in experiment [3] (setting [13]) it was 123 ± 4%; in experiment [3] (setting [14]), 78 ± 3%. Moreover, the response vs control in vivo at 0.3 mg/kg was determined as 83 ± 3% in experiment [2], 151 ± 8% in experiment [3] (setting [13]) and 58 ± 3% in experiment [3] (setting [14]). Further, the results for the response vs control in vivo at 1 mg/kg in experiment [2], in experiment [3] (setting [13]) and in experiment [3] (setting [14]) were 73 ± 4%, 184 ± 14% and 43 ± 3%, respectively.
